17 compounds from patent publication US20060235035A1, “Novel methoxybenzamibe compounds for use in mch receptor related disorders” (7TM Pharma A/S, priority 2002, published 2006) can be followed below.

A word on the IC50: it is the midpoint of a concentration-inhibition curve. A high value points to lower potency.

Each structure is given as a SMILES string.

Assay [1] has as its target T1, human MCH-1 receptor (Homo sapiens, UniProt Q99705).
T1 construct: expressed in transfected cells; host or cells: transiently transfected COS-7 cells or stably transfected CHO cells (pcDNA3.1)
The assay is described as follows: Radioligand binding assay ([125I]-MCH competition, whole cells). To be noted: competition with [125I]-MCH; COS-7 or CHO cells expressing human MCH-1 receptor. The protocol:
Transfections and Tissue Culture—The cDNA encoding the human MCH-1 receptor was cloned from a human brain cDNA library and cloned into the eukaryotic expression vector pcDNA3.1 (Invitrogen). Assays were performed on transiently transfected COS-7 cells or stably transfected CHO (Chinese Hamster Ovary) cells, expressing the human MCH-1 receptor in pcDNA3.1. Stable MCH-1 receptor transfectants of CHO cells were obtained using 5 μg plasmid cDNA and a standard calcium phosphate transfection method (Johansen et al., 1990; Gether et al., 1992) with subsequent selection in 1 mg/ml G418 (Life Technology). Clones were screened by a MCH receptor radioligand binding assay (as described below). Stably transfected CHO cells were maintained in RPMI 1640 culture medium (Invitrogen), supplemented with 10% fetal calf serum (Invitrogen), 100 U/ml penicillin, 100 μg/ml streptomycin (Life Technology), and 500 μg/ml G418 (Life Technology). COS-7 cells were grown in Dulbecco's modified Eagle's medium (DMEM) 1885 (Invitrogen) supplemented with 10% fetal calf serum, 100 U/ml penicillin, 100 μg/ml streptomycin, and were transiently transfected by a standard calcium phosphate transfection method (Johansen et al., 1990; Gether et al., 1992) two days before assay.
Radioligand Binding Assay—Transiently transfected COS-7 cells or stably transfected CHO cells, expressing human MCH-1 receptor were seeded in multi-well culture plates one day before the assay. The number of cells per well was determined by the apparent expression efficiency of the cell line aiming at 5-10% binding of the added radioligand. Cells were assayed by competition binding for 3 hours at room temperature using […] [^125I]-MCH (Amersham Pharmacia Biotech) plus variable amounts of unlabeled ligand in 0.5 ml of a 25 mM Hepes buffer, pH 7.4, supplemented with 10 mM MgCl2, 5 mM MnCl2, 10 mM NaCl, 0.1% (w/v) bovine serum albumin (BSA), 100 μg/ml bacitracin. The assay was performed in duplicate. Nonspecific binding was determined as the binding in the presence of 1 μM MCH (Bachem). Binding data were analyzed and IC50 values determined by non-linear regression using the Prism software (GraphPad software, San Diego). Values of the dissociation and inhibition constants (Kd and Ki) were estimated from competition binding using the equations Kd=IC50−L and Ki=IC50/(1+L/Kd), respectively, where L is the concentration of radioligand.

For assay [2], the target named is T1, human MCH-1 receptor. The assay is described as follows: Phosphatidylinositol assay (IP3). The settings on record: phosphatidylinositol turnover stimulated by 10 nM MCH; COS-7 or CHO cells expressing human MCH-1 receptor. The assay is classed as cell-based. The protocol:
Transfections and Tissue Culture—The cDNA encoding the human MCH-1 receptor was cloned from a human brain cDNA library and cloned into the eukaryotic expression vector pcDNA3.1 (Invitrogen). Assays were performed on transiently transfected COS-7 cells or stably transfected CHO (Chinese Hamster Ovary) cells, expressing the human MCH-1 receptor in pcDNA3.1. […] Clones were screened by a MCH receptor radioligand binding assay (as described below).
Phosphatidylinositol assay—To assay phosphatidylinositol turnover, transiently transfected COS-7 cells or stably transfected CHO cells, expressing human MCH-1 receptor (2×10^5 cells/well) were incubated for 24 h with 5 μCi of [^3H]-myo-inositol (Amersham Pharmacia Biotech) in 0.5 ml inositol-free culture medium. Cells were washed twice in PI-buffer: 20 mM HEPES, pH 7.4, supplemented with 140 mM NaCl, 5 mM KCl, 1 mM MgSO4, 1 mM CaCl2, 10 mM glucose, 0.02% (w/v) bovine serum; and were incubated in 0.5 ml PI-buffer supplemented with 10 mM LiCl at 37° C. for 45 min. Phosphatidylinositol turnover was stimulated by submaximal concentrations of MCH, i.e. 10 nM in the presence of increasing amounts of ligand. The ligand was added 5 min. before adding the agonist (MCH). Cells were extracted with 10 mM ice-cold Formic acid, and the generated [^3H]-inositol phosphates were purified on Bio-Rad AG 1-X8 anion-exchange resin. Determinations were made in duplicate. PI data were analyzed and IC50 values determined by non-linear regression using the Prism software (GraphPad software, San Diego).

For a further assay, the target named is T2, hMCHreceptor (Homo sapiens, UniProt Q99705).
T2 construct: purchased Euroscreen ES-370-M; host or cells: CHO-K1 membranes
The assay is described as follows: Scintillation Proximity Assay (SPA), [125I]-MCH binding to CHO-K1 membranes. The settings on record: CHO-K1 membranes expressing hMCH receptor. On the procedure:
Scintillation Proximity Assay (SPA)—Measurement of [^125I]-MCHbinding was performed in duplicates by incubating membranes and beads with tracer in the presences of various concentrations of test compounds (10^−8 to 10^−4 M) in DMSO (3 μl) at room temperature for two hours. Membranes and beads were pre-incubated for 20 min. The binding buffer contained 50 mM Tris (pH 7.4), 8 mM MgCl2, 12% glycerol, 0.1% (w/v) bovine serum albumin (BSA), and protease inhibitors (Complete protease inhibitor cocktail tablets, Roche). A final [^125I]-MCH(2000 Ci/mmol; Amersham Pharmacia Biotech) concentration of 75.000 cpm/well (33.8 nCi) was applied and PEI-treated WGA-coupled PVT SPA beads, type B from Amersham Pharmacia Biotech were used at a final concentration of 0.4 mg/well. Moreover, CHO-K1 membranes expressing the hMCHreceptor were purchased from Euroscreen (ES-370-M) and a final concentration of 2 μg/well were used. Binding data were analyzed and IC50 values determined by non-linear regression using the Prism software (GraphPad software, San Diego). Values of the inhibition constant (Ki) were estimated from competition binding using the equation Ki=IC50/([…]), where L and Kd are the concentration and affinity constant, respectively, of the radioligand.
For orientation: In a scintillation proximity assay essentially only radioactivity close to the scintillant gives light.

T1 sequence (Q99705 whole entry): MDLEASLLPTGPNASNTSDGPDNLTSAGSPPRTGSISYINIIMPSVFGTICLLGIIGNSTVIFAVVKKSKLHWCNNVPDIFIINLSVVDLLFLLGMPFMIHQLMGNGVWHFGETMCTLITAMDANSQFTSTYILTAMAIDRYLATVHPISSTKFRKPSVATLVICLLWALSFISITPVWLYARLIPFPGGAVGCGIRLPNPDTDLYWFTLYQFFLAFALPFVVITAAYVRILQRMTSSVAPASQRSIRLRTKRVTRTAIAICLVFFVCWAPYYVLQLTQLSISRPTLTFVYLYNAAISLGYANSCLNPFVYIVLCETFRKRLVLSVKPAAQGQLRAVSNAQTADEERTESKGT
T2 sequence (Q99705 whole entry): as above

For the compound `COc1cc(NC(=O)c2ccc(-c3ccccc3)cc2)ccc1C(=O)NCCN(C)C` [Ex 2, Biphenyl-4-carboxylic acid[4-(2-dimethylamino-ethylcarbamoyl)-3-methoxy-phenyl]-amide], at human MCH-1 receptor [1], the IC50 came out at 1480 nM.

As for `COc1cc(NC(=O)Nc2ccc(Oc3ccccc3)cc2)ccc1C(=O)NCCN(C)C` [Ex 8, N-(2-Dimethylamino-ethyl)-2-methoxy-4-[3-(4-phenoxy-phenyl)-ureido]-benzamide], the IC50 came out at 380 nM at human MCH-1 receptor [1] and 2300 nM against human MCH-1 receptor [2].

For `COc1cc(NC(=O)Nc2ccc(Oc3ccccc3)cc2)ccc1C(=O)NC1CCN(Cc2ccccc2)CC1` [Ex 16, N-(1-Benzyl-piperidin-4-yl)-2-methoxy-4-[3-(4-phenoxy-phenyl)-ureido]-benzamide], the IC50 came out at 220 nM at human MCH-1 receptor [1] and 1800 nM against human MCH-1 receptor [2].

For the compound `COc1cc(NC(=O)Nc2ccc(Oc3ccccc3)cc2)ccc1C(=O)NCCCN1CCOCC1` [Ex 23, 2-Methoxy-N-(3-morpholin-4-yl-propyl)-4-[3-(4-phenoxy-phenyl)-ureido]-benzamide], the IC50 at human MCH-1 receptor [1] was 210 nM; against human MCH-1 receptor [2] it was 770 nM.

For the compound `CCN(CC)CCNC(=O)c1ccc(N(C)C(=O)Nc2ccc(Oc3ccccc3)cc2)cc1OC` [Ex 33, N-(2-Diethylamino-ethyl)-2-methoxy-4-[1-methyl-3-(4-phenoxy-phenyl)-ureido]-benzamide], the IC50 stood at 48 nM on human MCH-1 receptor [1] and 290 nM on human MCH-1 receptor [2].

Take `CCN(CC)CCNC(=O)c1ccc(NC(=O)Nc2ccc(OC(F)(F)F)cc2)cc1` [Ex 47, N-(2-Diethylamino-ethyl)-4-[3-(4-trifluoromethoxy-phenyl)-ureido]-benzamide]: the values for the IC50 on human MCH-1 receptor [1] and at human MCH-1 receptor [2] were 70 nM and 290 nM, respectively.

`CCN(CC)CCNC(=O)c1ccc(NC(=O)Nc2ccc(OC(F)(F)F)cc2)cc1OC` [Ex 48, N-(2-Diethylamino-ethyl)-2-methoxy-4-[3-(4-trifluoromethoxy-phenyl)-ureido]-benzamide]: the IC50 on human MCH-1 receptor [1] was found to be 96 nM; at human MCH-1 receptor [2], 190 nM.

Regarding `COc1cc(NC(=O)Nc2ccc(C(F)(F)F)cc2)ccc1C(=O)NCCN1CCOCC1` [Ex 67, 2-Methoxy-N-(2-morpholin-4-yl-ethyl)-4-[3-(4-trifluoromethyl-phenyl)-ureido]-benzamide], the results for the IC50 at hMCHreceptor and at human MCH-1 receptor [2] were 27 nM and 220 nM, respectively.

In the case of `COc1cc(NC(=O)Nc2cccc(Nc3ccccc3)c2)ccc1C(=O)NCCCN1CCCCC1` [Ex 89, 2-Methoxy-4-[3-(3-phenylamino-phenyl)-ureido]-N-(3-piperidin-1-yl-propyl)-benzamide], the half-maximal inhibitory concentration (IC50) at human MCH-1 receptor [1] is 12 nM; on human MCH-1 receptor [2] it was 22 nM.

For the compound `COc1cc(NC(=O)Nc2ccc(Oc3ccccc3)cc2)ccc1C(=O)NCCCN1CCCCC1` [Ex 95, 2-Methoxy-4-[3-(4-phenoxy-phenyl)-ureido]-N-(3-piperidin-1-yl-propyl)-benzamide], the IC50 at human MCH-1 receptor [1] came to 44 nM; on human MCH-1 receptor [2] it was 240 nM.

At human MCH-1 receptor [1], `COc1cc(NC(=O)Nc2cccc(Oc3ccccc3)c2)ccc1C(=O)NCCCN1CCOCC1` [Ex 121, 2-Methoxy-N-(3-morpholin-4-yl-propyl)-4-[3-(3-phenoxy-phenyl)-ureido]-benzamide] displayed an IC50 of 74 nM. This lies in the double-digit nanomolar range.

With `CCCCN(CCCC)CCCNC(=O)c1ccc(N(C)C(=O)Nc2ccc(Oc3ccccc3)cc2)cc1OC` [Ex 134, N-(3-Dibutylamino-propyl)-2-methoxy-4-[1-methyl-3-(4-phenoxy-phenyl)-ureido]-benzamide], the IC50 is 69 nM at human MCH-1 receptor [1] and 670 nM against human MCH-1 receptor [2].

Turning to `COc1cc(NC(=O)Nc2ccc(Oc3ccc(F)cc3)cc2)ccc1C(=O)NCCCN1CCOCC1` [Ex 135, 4-{3-[4-(4-Fluoro-phenoxy)-phenyl]-ureido}-2-methoxy-N-(3-morpholin-4-yl-propyl)-benzamide], the results for the IC50 on human MCH-1 receptor [1] and against human MCH-1 receptor [2] were 450 nM and 1600 nM, respectively.

In the case of `COc1cc(NC(=O)Nc2ccc(Oc3ccccn3)cc2)ccc1C(=O)NCCCN1CCOCC1` [Ex 136, 2-Methoxy-N-(3-morpholin-4-yl-propyl)-4-(3-[4-(pyridin-2-yloxy)-phenyl]-ureido)-benzamide], at human MCH-1 receptor [1], the IC50 is 4450 nM. That is a single-digit micromolar value.

As for `COc1cc(NC(=O)Nc2ccc3c(c2)CCC3)ccc1C(=O)NC1CCN(Cc2ccccc2)CC1` [Ex 137, N-(1-Benzyl-piperidin-4-yl)-4-(3-indan-5-yl-ureido)-2-methoxy-benzamide], the IC50 at human MCH-1 receptor [1] came out at 300 nM.

In turn, `COc1cc(NC(=O)Nc2ccc(Nc3ccc(C(F)(F)F)cc3)cc2)ccc1C(=O)NCCCN1CCOCC1` [Ex 139, 2-Methoxy-N-(3-morpholin-4-yl-propyl)-4-{3-[4-(4-trifluoromethyl-phenylamino)-phenyl]-ureido}-benzamide] gave an IC50 at human MCH-1 receptor [1] of 1410 nM.

On human MCH-1 receptor [1], `COc1cc(NC(=O)Nc2ccc(Oc3ccccc3)cc2)c(F)cc1C(=O)NCCCN1CCCCC1` [Ex 186, 5-Fluoro-2-methoxy-4-[3-(4-phenoxy-phenyl)-ureido]-N-(3-piperidin-1-yl-propyl)-benzamide] had an IC50 of 1000 nM.
